# Data as given in the RepoRT retention time repository (doi:10.1007/s00216-021-03828-0).
# Assays:
# Conditions in all cases: stereoisomer not certain
# [1] = RP, Merck Supelco Ascentis Express C18, 100 × 2.1 mm, 2 µm, 40 °C, 0.35 mL/min, estimated dead time 0.63 min; A: water + 0.1% formic acid, pH 3; B: acetonitrile + 0.1% formic acid, pH 3; gradient (min/%B) 0/5 2/5 17/99.9 20/99.9
# [2] = RP, Merck Supelco Ascentis Express C18, 100 × 2.1 mm, 2 µm, 40 °C, 0.2 mL/min, estimated dead time 1.1 min; A: water + 0.1% formic acid, pH 3; B: acetonitrile + 0.1% formic acid, pH 3; gradient (min/%B) 0/5 2/5 17/99.9 20/99.9
# [3] = as above; remark: listed apart in the source
# [4] = RP, Merck Supelco Ascentis Express C18, 100 × 2.1 mm, 2 µm, 40 °C, 0.25 mL/min, estimated dead time 0.88 min; A: water + 0.1% formic acid, pH 3; B: acetonitrile + 0.1% formic acid, pH 3; gradient (min/%B) 0/5 2/5 17/99.9 20/99.9
# [5] = RP, Merck Supelco Ascentis Express C18, 100 × 2.1 mm, 2 µm, 40 °C, 0.4 mL/min, estimated dead time 0.55 min; A: water + 0.1% formic acid, pH 3; B: acetonitrile + 0.1% formic acid, pH 3; gradient (min/%B) 0/5 2/5 17/99.9 20/99.9
# [6] = as above; remark: listed apart in the source
# [7] = RP, Merck Supelco Ascentis Express C18, 100 × 2.1 mm, 2 µm, 39 °C, 0.3 mL/min, estimated dead time 0.73 min; A: water + 0.1% formic acid, pH 3; B: acetonitrile + 0.1% formic acid, pH 3; gradient (min/%B) 0/5 2/5 17/99.9 20/99.9
compound,measurement,setting,value
CC1OC(n2cnc3c(N)ncnc32)C(O)C1O (stereo not given) [5'-DEOXYADENOSINE],LC retention time,[1],1.09 min
same,LC retention time,[2],1.92 min
same,LC retention time,[3],1.89 min
same,LC retention time,[4],1.49 min
same,LC retention time,[5],0.937 min
same,LC retention time,[6],0.95 min
same,LC retention time,[7],1.24 min
"Cc1cc2nc[nH]c2cc1C [5,6 DIMETHYLBENZIMIDAZOLE]",LC retention time,[1],4 min
same,LC retention time,[2],5.17 min
same,LC retention time,[3],5.16 min
same,LC retention time,[4],4.67 min
same,LC retention time,[5],3.76 min
same,LC retention time,[6],3.79 min
same,LC retention time,[7],4.28 min
O=C(O)Cc1c[nH]c2ccc(O)cc12 [5-HYDROXYINDOLEACETATE],LC retention time,[1],3.47 min
same,LC retention time,[2],4.79 min
same,LC retention time,[3],4.78 min
same,LC retention time,[4],4.23 min
same,LC retention time,[5],3.17 min
same,LC retention time,[6],3.19 min
same,LC retention time,[7],3.83 min
NC(Cc1c[nH]c2ccc(O)cc12)C(=O)O (stereo not given) [5-HYDROXYTRYPTOPHAN],LC retention time,[1],0.993 min
same,LC retention time,[2],1.71 min
same,LC retention time,[3],1.75 min
same,LC retention time,[4],1.35 min
same,LC retention time,[5],0.81 min
same,LC retention time,[6],0.853 min
same,LC retention time,[7],1.1 min
O=C(O)CCCCCC(=O)O [6-CARBOXYHEXANOATE],LC retention time,[1],3.89 min
same,LC retention time,[2],5.13 min
same,LC retention time,[3],5.14 min
same,LC retention time,[4],4.61 min
same,LC retention time,[5],3.63 min
same,LC retention time,[6],3.66 min
same,LC retention time,[7],4.22 min
O=C(O)c1ccc(=O)[nH]c1 [6-HYDROXYNICOTINATE],LC retention time,[1],0.887 min
same,LC retention time,[2],1.59 min
same,LC retention time,[3],1.59 min
same,LC retention time,[4],1.26 min
same,LC retention time,[5],0.773 min
same,LC retention time,[6],0.787 min
same,LC retention time,[7],1.06 min
O=C(O)CCCCCCCCCO [10-HYDROXYDECANOATE],LC retention time,[1],6.8 min
same,LC retention time,[2],8.02 min
same,LC retention time,[3],8.03 min
same,LC retention time,[4],7.49 min
same,LC retention time,[5],6.55 min
same,LC retention time,[6],6.58 min
same,LC retention time,[7],7.1 min
Nc1ccccc1S(=O)(=O)O [ANILINE-2-SULFONATE],LC retention time,[1],0.95 min
same,LC retention time,[2],1.76 min
same,LC retention time,[3],1.74 min
same,LC retention time,[4],1.38 min
same,LC retention time,[5],0.823 min
same,LC retention time,[6],0.847 min
same,LC retention time,[7],1.18 min
O=C(O)CCCCCCCC(=O)O [AZELATE],LC retention time,[1],5.73 min
same,LC retention time,[2],6.89 min
same,LC retention time,[3],6.98 min
same,LC retention time,[4],6.39 min
same,LC retention time,[5],5.49 min
same,LC retention time,[6],5.57 min
same,LC retention time,[7],6.09 min
O=C(O)c1ccccc1 [BENZOATE],LC retention time,[1],5.55 min
same,LC retention time,[2],7.03 min
same,LC retention time,[3],7.03 min
same,LC retention time,[4],6.4 min
same,LC retention time,[5],5.23 min
same,LC retention time,[6],5.28 min
same,LC retention time,[7],4.34 min
O=C(O)CCCCC1SCC2NC(=O)NC21 (stereo not given) [BIOTIN],LC retention time,[1],4.34 min
same,LC retention time,[2],5.44 min
same,LC retention time,[3],5.44 min
same,LC retention time,[4],4.96 min
same,LC retention time,[5],4.11 min
same,LC retention time,[6],4.14 min
same,LC retention time,[7],4.62 min
CC(CCC(=O)O)C1CCC2C3C(O)CC4CC(O)CCC4(C)C3CC(O)C12C (stereo not given) [CHOLATE],LC retention time,[1],9.14 min
same,LC retention time,[2],10.3 min
same,LC retention time,[3],10.3 min
same,LC retention time,[4],9.77 min
same,LC retention time,[5],8.9 min
same,LC retention time,[6],8.94 min
same,LC retention time,[7],9.4 min
CC12CCC(=O)C=C1CCC1C2CCC2(C)C1CCC2(O)C(=O)CO (stereo not given) [CORTEXOLONE],LC retention time,[1],7.95 min
same,LC retention time,[2],9.16 min
same,LC retention time,[3],9.2 min
same,LC retention time,[4],8.66 min
same,LC retention time,[5],7.69 min
same,LC retention time,[6],7.73 min
same,LC retention time,[7],8.25 min
CC(=O)OCC(=O)C1(O)CCC2C3CCC4=CC(=O)CCC4(C)C3C(O)CC21C (stereo not given) [CORTISOL 21-ACETATE],LC retention time,[1],8.33 min
same,LC retention time,[2],9.62 min
same,LC retention time,[3],9.62 min
same,LC retention time,[4],9.05 min
same,LC retention time,[5],8.05 min
same,LC retention time,[6],8.09 min
same,LC retention time,[7],8.64 min
CC12CCC(=O)C=C1CCC1C2C(O)CC2(C)C1CCC2(O)C(=O)CO (stereo not given) [CORTISOL],LC retention time,[1],6.88 min
same,LC retention time,[2],8.03 min
same,LC retention time,[3],8.04 min
same,LC retention time,[4],7.53 min
same,LC retention time,[5],6.65 min
same,LC retention time,[6],6.69 min
same,LC retention time,[7],7.17 min
CC12CCC(=O)C=C1CCC1C2C(=O)CC2(C)C1CCC2(O)C(=O)CO (stereo not given) [CORTISONE],LC retention time,[1],6.91 min
same,LC retention time,[2],8.07 min
same,LC retention time,[3],8.09 min
same,LC retention time,[4],7.56 min
same,LC retention time,[5],6.69 min
same,LC retention time,[6],6.73 min
same,LC retention time,[7],7.21 min
Nc1nc2c(ncn2C2CC(O)C(CO)O2)c(=O)[nH]1 (stereo not given) [DEOXYGUANOSINE],LC retention time,[1],0.82 min
same,LC retention time,[2],1.47 min
same,LC retention time,[3],1.44 min
same,LC retention time,[4],1.13 min
same,LC retention time,[5],0.707 min
same,LC retention time,[6],0.703 min
same,LC retention time,[7],0.943 min
O=c1ccn(C2CC(O)C(CO)O2)c(=O)[nH]1 (stereo not given) [DEOXYURIDINE],LC retention time,[1],0.81 min
same,LC retention time,[2],1.42 min
same,LC retention time,[3],1.41 min
same,LC retention time,[4],1.12 min
same,LC retention time,[5],0.68 min
same,LC retention time,[6],0.697 min
same,LC retention time,[7],0.953 min
CC1NC(=O)NC1CCCCCC(=O)O (stereo not given) [DETHIOBIOTIN],LC retention time,[1],4.81 min
same,LC retention time,[2],5.92 min
same,LC retention time,[3],5.96 min
same,LC retention time,[4],5.43 min
same,LC retention time,[5],4.54 min
same,LC retention time,[6],4.58 min
same,LC retention time,[7],5.15 min
CCC=CCC=CCC=CCC=CCC=CCCCC(=O)O [EICOSAPENTAENOATE],LC retention time,[1],14.2 min
same,LC retention time,[2],15.9 min
same,LC retention time,[3],15.9 min
same,LC retention time,[4],15.2 min
same,LC retention time,[5],13.9 min
same,LC retention time,[6],13.9 min
same,LC retention time,[7],14.7 min
CCC(C(=O)O)C(=O)O [ETHYLMALONATE],LC retention time,[1],1.72 min
same,LC retention time,[2],3.05 min
same,LC retention time,[3],3.01 min
same,LC retention time,[4],2.31 min
same,LC retention time,[5],1.48 min
same,LC retention time,[6],1.48 min
same,LC retention time,[7],2.06 min
COc1cc(C=CC(=O)O)ccc1O [FERULATE],LC retention time,[1],5.07 min
same,LC retention time,[2],6.32 min
same,LC retention time,[3],6.33 min
same,LC retention time,[4],5.78 min
same,LC retention time,[5],4.81 min
same,LC retention time,[6],4.85 min
same,LC retention time,[7],5.39 min
Nc1nc2ncc(CNc3ccc(C(=O)NC(CCC(=O)O)C(=O)O)cc3)nc2c(=O)[nH]1 (stereo not given) [FOLATE],LC retention time,[1],3.76 min
same,LC retention time,[2],4.69 min
same,LC retention time,[3],4.66 min
same,LC retention time,[4],4.27 min
same,LC retention time,[5],3.58 min
same,LC retention time,[6],3.58 min
same,LC retention time,[7],3.99 min
CCCCCCCCCCCCCC(=O)OCC(O)CO (stereo not given) [GLYCEROL-MYRISTATE],LC retention time,[1],13.6 min
same,LC retention time,[2],15.3 min
same,LC retention time,[3],15.4 min
same,LC retention time,[4],14.6 min
same,LC retention time,[5],13.2 min
same,LC retention time,[6],13.3 min
same,LC retention time,[7],14 min
CC(CCC(=O)NCC(=O)O)C1CCC2C3C(O)CC4CC(O)CCC4(C)C3CCC12C (stereo not given) [GLYCOCHENODEOXYCHOLATE],LC retention time,[1],9.28 min
same,LC retention time,[2],10.4 min
same,LC retention time,[3],10.5 min
same,LC retention time,[4],9.94 min
same,LC retention time,[5],9.05 min
same,LC retention time,[6],9.09 min
same,LC retention time,[7],9.57 min
CC(CCC(=O)NCC(=O)O)C1CCC2C3C(O)CC4CC(O)CCC4(C)C3CC(O)C12C (stereo not given) [GLYCOCHOLATE],LC retention time,[1],8.17 min
same,LC retention time,[2],9.2 min
same,LC retention time,[3],9.22 min
same,LC retention time,[4],8.75 min
same,LC retention time,[5],7.96 min
same,LC retention time,[6],8 min
same,LC retention time,[7],8.42 min
Nc1nc2nc[nH]c2c(=O)[nH]1 [GUANINE],LC retention time,[1],0.757 min
same,LC retention time,[2],1.36 min
same,LC retention time,[3],1.37 min
same,LC retention time,[4],1.09 min
same,LC retention time,[5],0.693 min
same,LC retention time,[6],0.663 min
same,LC retention time,[7],0.883 min
O=C(O)CNC(=O)c1ccccc1 [HIPPURATE],LC retention time,[1],3.72 min
same,LC retention time,[2],5.11 min
same,LC retention time,[3],5.12 min
same,LC retention time,[4],4.54 min
same,LC retention time,[5],3.42 min
same,LC retention time,[6],3.45 min
same,LC retention time,[7],4.09 min
O=C(O)Cc1cc(O)ccc1O [HOMOGENTISATE],LC retention time,[1],1.35 min
same,LC retention time,[2],2.48 min
same,LC retention time,[3],2.38 min
same,LC retention time,[4],1.92 min
same,LC retention time,[5],1.16 min
same,LC retention time,[6],1.22 min
same,LC retention time,[7],1.64 min
COc1cc(CC(=O)O)ccc1O [HOMOVANILLATE],LC retention time,[1],4.18 min
same,LC retention time,[2],5.42 min
same,LC retention time,[3],5.43 min
same,LC retention time,[4],4.9 min
same,LC retention time,[5],3.93 min
same,LC retention time,[6],3.96 min
same,LC retention time,[7],4.5 min
